Reference: patent publication US20240197750A1, “CEFTIBUTEN DOSING REGIMENS” (QPEX Biopharma, Inc., priority 2021, published 2024)

Key:
[1] = Pharmacokinetics of single and multiple oral doses of ceftibuten in healthy adult subjects; type: in vivo, human; settings: for dose proportionality of exposure (Cmax, AUC0-12, AUC0-∞): doses of 400, 600 and 800 mg of ceftibuten
Description: (§1) A double-blind, randomized, placebo-controlled, sequential ascending single- and multiple dose study of ceftibuten in healthy adult subjects was conducted. There were four cohorts of 10 subjects each who received both single and multiple oral doses (8 active and 2 placebo).
Dose proportionality was examined graphically and using an ANOVA test of the dose-normalized Cmax, AUC0-12 and AUC0-∞ values. […] The AUC0-12 exposure of cis-ceftibuten is shown in FIG. 1 and the AUC0-12 exposure of trans-ceftibuten is shown in FIG. 2, showing that increases were dose proportional.

[2] = tested on: 99 strains of Enterobacterales; test: Resistance development study: mutant prevention concentration (MPC) of Compound 1 with ceftibuten; type: cell-based
Description: 99 strains of Enterobacterales were used in resistance development studies using ceftibuten at 1 or 2 μg/ml in combination with various concentrations of the following β-lactamase inhibitor:
Compound 1 is described in PCT Publication No. WO 2018/005662, which is incorporated herein by reference in its entirety. Concentrations of Compound 1 included 1, 2, 4 and 8 μg/ml. The goal of the study was to identify the concentration of Compound 1 (MPC, mutant prevention concentration) that will prevent appearance of mutants at two different concentrations of ceftibuten.

[3] = Safety of single and multiple ascending oral doses of ceftibuten in healthy adult subjects; type: in vivo
Description: as §1
The event of nausea occurred in one subject in the SAD period following single administration of ceftibuten and the event of […] occurred in one subject in the MAD period following administration of the ceftibuten. […] The nausea was considered to be moderate in severity and diarrhea considered to be mild in severity with both events deemed by the investigator to be related to the study drug. The nausea persisted from Day 1 dose (SAD) until after Day 4 morning dose (MAD), despite treatment with concomitant medications. […] The incidence of treatment-related TEAEs was similar in the 400 mg (1 [12.5%] of 8 subjects) and 600 mg (2 [25.0%] of 8 subjects) ceftibuten and Pooled Placebo groups (3 [37.5%] of 8 subjects). […] The highest incidence was reported in the highest ceftibuten dose (800 mg). The most common gastrointestinal TEAEs in the 800 mg group during the MAD period were nausea in 4 out of 16 subjects (25.0%), diarrhea in 4 of 16 (25.0%), abdominal pain in 3 of 16 (18.8%), upper abdominal pain in 3 of 16 (18.8%) and abdominal discomfort in 2 of 16 subjects (12.5%). Most Gastrointestinal Disorder TEAEs were transient and mild in severity with no intervention required. […] All events were asymptomatic, resolved spontaneously after the completion of study treatment, and were not associated with elevations of alkaline phosphatase or bilirubin. • There was no trend in abnormalities that were NCS in hematology, coagulation, or urinalysis parameters.

[4] = multiple oral doses 400 mg ceftibuten BID
[5] = multiple oral doses 600 mg ceftibuten BID
[6] = multiple oral doses 800 mg ceftibuten BID
[7] = single oral dose 400 mg ceftibuten
[8] = single oral dose 600 mg ceftibuten
[9] = single oral dose 800 mg ceftibuten

Row | Structure (SMILES) | terminal half-life ([1]; 400-800 mg ceftibuten oral) [h] | time of peak plasma concentration post-dose ([1]; 400-800 mg ceftibuten oral) [h] | urinary recovery, % of the administered dose ([1]; after multiple doses) | urinary recovery, % of the administered dose ([1]; after single doses) | dose proportionality of exposure (Cmax, AUC0-12, AUC0-∞) [1] | mean maximum plasma concentration [1, 4] [µg/mL] | mean maximum plasma concentration [1, 5] [µg/mL] | mean maximum plasma concentration [1, 6] [µg/mL] | mean maximum plasma concentration [1, 7] [µg/mL] | mean maximum plasma concentration [1, 8] [µg/mL] | mean maximum plasma concentration [1, 9] [µg/mL] | also measured
1 | Nc1nc(/C(=C/CC(=O)O)C(=O)N[C@@H]2C(=O)N3C(C(=O)O)=CCS[C@H]23)cs1 (relative stereo) [cis-ceftibuten] | 2.3 to 3.1 | 2.3 to 3.0 | 75.8-100% | 59.5-86.9% | increased proportionally | 21.7 | 28.1 | 38.8 | 17.6 | 24.1 | 28.1 | renal clearance ([1]; 400-800 mg ceftibuten oral): 2.9 to 4.2 L/h; total body clearance ([1]; 400-800 mg ceftibuten oral): 3.9 to 5.0 L/h
2 | Nc1nc(/C(=C\CC(=O)O)C(=O)N[C@@H]2C(=O)N3C(C(=O)O)=CCS[C@H]23)cs1 (relative stereo) [trans-ceftibuten] | 3.0 to 3.6 | 3.3 to 4.8 | 14.1-16.8% | 9.3-12.5% | increased proportionally | 1.4 | 1.9 | 2.8 | 1.1 | 1.5 | 2.2 | 
3 | O=C([O-])c1c(F)ccc2c1O[B-](O)(O)[C@@H]1C[C@H]21.[Na+].[Na+] [Compound 1] |  |  |  |  |  |  |  |  |  |  |  | % Strains with Compound 1 MPC <= 4 ug/ml ([2]; ceftibuten at 1 μg/ml, strains with Ceftibuten/Compound 1 MIC 0.125 (20 strains)): 90.0%; % Strains with Compound 1 MPC <= 4 ug/ml ([2]; ceftibuten at 1 μg/ml, strains with Ceftibuten/Compound 1 MIC 0.25 (16 strains)): 56.3%; % Strains with Compound 1 MPC <= 4 ug/ml ([2]; ceftibuten at 1 μg/ml, strains with Ceftibuten/Compound 1 MIC 0.5 (14 strains)): 21.4%; % Strains with Compound 1 MPC <= 4 ug/ml ([2]; ceftibuten at 1 μg/ml, strains with Ceftibuten/Compound 1 MIC 1 (12 strains)): 8.3%; % Strains with Compound 1 MPC <= 4 ug/ml ([2]; ceftibuten at 1 μg/ml, strains with Ceftibuten/Compound 1 MIC 2 (7 strains)): 28.6%; % Strains with Compound 1 MPC <= 4 ug/ml ([2]; ceftibuten at 1 μg/ml, strains with Ceftibuten/Compound 1 MIC <=0.06 (30 strains)): 96.7%; % Strains with Compound 1 MPC <= 4 ug/ml ([2]; ceftibuten at 2 μg/ml, strains with Ceftibuten/Compound 1 MIC 0.125 (20 strains)): 95.0%; % Strains with Compound 1 MPC <= 4 ug/ml ([2]; ceftibuten at 2 μg/ml, strains with Ceftibuten/Compound 1 MIC 0.25 (16 strains)): 87.5%; % Strains with Compound 1 MPC <= 4 ug/ml ([2]; ceftibuten at 2 μg/ml, strains with Ceftibuten/Compound 1 MIC 0.5 (14 strains)): 57.1%; % Strains with Compound 1 MPC <= 4 ug/ml ([2]; ceftibuten at 2 μg/ml, strains with Ceftibuten/Compound 1 MIC 1 (12 strains)): 16.7%; % Strains with Compound 1 MPC <= 4 ug/ml ([2]; ceftibuten at 2 μg/ml, strains with Ceftibuten/Compound 1 MIC 2 (7 strains)): 28.6%; % Strains with Compound 1 MPC <= 4 ug/ml ([2]; ceftibuten at 2 μg/ml, strains with Ceftibuten/Compound 1 MIC <=0.06 (30 strains)): 100.0%
4 | Nc1nc(/C(=C/CC(=O)O)C(=O)N[C@@H]2C(=O)N3C(C(=O)O)=CCS[C@H]23)cs1 [ceftibuten] |  |  |  |  |  |  |  |  |  |  |  | frequency of reported TEAEs versus dose ([3]; MAD period, 400-800 mg BID): did not increase with increasing ceftibuten dose; serious, severe, life-threatening TEAEs or TEAEs resulting in death ([3]; SAD and MAD periods): no serious, severe, life-threatening TEAEs, or TEAEs resulting in death; frequency of reported TEAEs versus dose ([3]; SAD period, 400-800 mg): did not increase with increasing ceftibuten dose; ALT elevations ([3]; human, in vivo): incidence and severity of which did not increase with increasing ceftibuten dose; abnormalities in ECG parameters or physical examination ([3]; human, in vivo): no CS abnormalities; number of TEAEs reported ([3]; human, in vivo): 44; severity of TEAEs ([3]; human, in vivo): All TEAEs were mild, regardless of causality, with the exception of 2 TEAEs; vital sign parameters (blood pressure, pulse rate, body temperature, respiratory rate) ([3]; human, in vivo): no trends in changes from Baseline
